Measurements reported in ChEMBL document CHEMBL1133212, “An enantioselective synthesis and biobehavioral evaluation of 7-fluoro-3-(p-fluorophenyl)-2-propyltropanes” (Bioorg Med Chem Lett, 2000).

Key:
[1] = biological target: T1, Sodium-dependent dopamine transporter (Rattus norvegicus, UniProt P23977); test: Compound was tested for its ability to inhibit high affinity uptake of [3H]DA into rat striatal membrane; parameters: species or system Striatum
[2] = biological target: Norepinephrine transporter (Rattus norvegicus, UniProt Q9WTR4); test: Compound was tested for its ability to inhibit high-affinity uptake of [3H]NE into parietal and occipital cortex in rat
Norepinephrine transporter, sequence (Q9WTR4 whole entry): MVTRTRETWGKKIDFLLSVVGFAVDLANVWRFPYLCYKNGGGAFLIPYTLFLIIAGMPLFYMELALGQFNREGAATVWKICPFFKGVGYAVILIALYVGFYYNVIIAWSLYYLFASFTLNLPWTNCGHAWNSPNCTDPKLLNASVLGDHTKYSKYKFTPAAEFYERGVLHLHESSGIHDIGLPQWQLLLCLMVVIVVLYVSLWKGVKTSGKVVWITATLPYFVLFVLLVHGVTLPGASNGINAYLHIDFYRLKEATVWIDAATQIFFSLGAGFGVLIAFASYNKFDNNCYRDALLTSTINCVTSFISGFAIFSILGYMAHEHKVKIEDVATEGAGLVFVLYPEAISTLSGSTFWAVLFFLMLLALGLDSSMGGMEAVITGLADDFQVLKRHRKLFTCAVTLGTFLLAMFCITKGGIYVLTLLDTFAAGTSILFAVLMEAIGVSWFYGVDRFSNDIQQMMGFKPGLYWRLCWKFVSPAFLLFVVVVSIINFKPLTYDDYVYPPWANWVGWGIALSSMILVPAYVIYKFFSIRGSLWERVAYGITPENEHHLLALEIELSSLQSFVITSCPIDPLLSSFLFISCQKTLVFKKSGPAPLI

[3] = biological target: Sodium-dependent serotonin transporter (Rattus norvegicus, UniProt P31652); test: Compound was tested for its ability to inhibit high affinity uptake of [3H]5-HT into mid brain nerve endings (synaptosomes) in rat; assay type: subcellular
Sodium-dependent serotonin transporter, sequence (P31652 whole entry): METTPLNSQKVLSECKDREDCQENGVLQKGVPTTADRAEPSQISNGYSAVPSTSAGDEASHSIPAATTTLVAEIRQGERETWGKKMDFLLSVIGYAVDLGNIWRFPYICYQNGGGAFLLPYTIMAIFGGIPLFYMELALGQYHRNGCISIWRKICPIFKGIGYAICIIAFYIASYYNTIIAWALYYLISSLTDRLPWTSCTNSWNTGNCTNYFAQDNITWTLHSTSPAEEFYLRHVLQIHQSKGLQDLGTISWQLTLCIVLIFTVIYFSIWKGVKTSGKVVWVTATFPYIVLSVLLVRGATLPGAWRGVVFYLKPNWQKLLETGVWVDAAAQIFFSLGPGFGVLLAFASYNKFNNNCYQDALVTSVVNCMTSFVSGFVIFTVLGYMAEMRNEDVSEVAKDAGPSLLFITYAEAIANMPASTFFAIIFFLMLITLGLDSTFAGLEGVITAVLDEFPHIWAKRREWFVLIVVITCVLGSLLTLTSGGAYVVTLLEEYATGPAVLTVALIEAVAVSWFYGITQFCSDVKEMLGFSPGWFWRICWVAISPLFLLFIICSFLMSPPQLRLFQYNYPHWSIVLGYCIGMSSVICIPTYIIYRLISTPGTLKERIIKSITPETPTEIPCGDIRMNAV

[4] = biological target: T1, Sodium-dependent dopamine transporter; test: ability to displace [3H]- Mazindol binding to cocaine binding sites on Dopamine transporter of rat striatal membranes; parameters: species or system Striatum, Membrane
[5] = system: Rattus norvegicus; test: Percent reduction in cocaine induced reward enhancement after administration of compound at 5 mg/kg or 10 mg/kg combined with 10 mg/kg of cocaine intraperitoneally in rats; assay type: functional
[6] = biological target: T1, Sodium-dependent dopamine transporter; test: Binding affinity to a single, sodium-dependent site on the Dopamine transporter in rat striatal membranes; assay type: cell membranes, Striatum, Membrane

T1 sequence (P23977 whole entry): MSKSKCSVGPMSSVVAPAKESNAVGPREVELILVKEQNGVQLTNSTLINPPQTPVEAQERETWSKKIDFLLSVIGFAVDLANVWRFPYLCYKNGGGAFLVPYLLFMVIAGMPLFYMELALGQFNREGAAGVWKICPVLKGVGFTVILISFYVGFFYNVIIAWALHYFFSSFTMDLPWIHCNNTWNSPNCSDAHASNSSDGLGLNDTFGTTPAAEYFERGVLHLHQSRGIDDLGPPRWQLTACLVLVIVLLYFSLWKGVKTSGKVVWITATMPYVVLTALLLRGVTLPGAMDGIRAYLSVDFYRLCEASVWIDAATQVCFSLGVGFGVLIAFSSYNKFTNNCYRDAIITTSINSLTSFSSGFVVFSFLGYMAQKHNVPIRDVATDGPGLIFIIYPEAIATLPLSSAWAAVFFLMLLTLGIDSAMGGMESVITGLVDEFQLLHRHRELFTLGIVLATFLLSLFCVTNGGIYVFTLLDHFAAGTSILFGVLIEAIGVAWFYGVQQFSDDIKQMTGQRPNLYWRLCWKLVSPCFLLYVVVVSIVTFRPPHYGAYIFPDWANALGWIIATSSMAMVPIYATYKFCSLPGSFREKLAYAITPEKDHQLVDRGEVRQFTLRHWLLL

| SMILES | Ki [1] [nM] | Ki [2] [nM] | Ki [3] [nM] | Ki [4] [nM] | Reduction [5] [%] | Kd [6] [nM] |
| --- | --- | --- | --- | --- | --- | --- |
| CCCC1C(c2ccc(F)cc2)CC2CC(F)(F)C1N2C (stereo not drawn) | 1450 | 3790 | 7910 | 860 | – | – |
| CCCC1C(c2ccc(F)cc2)CC2C[C@H](F)C1N2C (stereo partly drawn) | 49 | 52 | 561 | – | 60 | – |
| CCCC1C(c2ccc(F)cc2)CC2C[C@@H](F)C1N2C (stereo partly drawn) | 304 | 126 | 1250 | 1150 | – | – |
| OC1(c2ccc(Cl)cc2)c2ccccc2C2=NCCN21 (stereo not drawn) [MAZINDOL] | – | – | – | – | – | 8.63 |
